Consider 33 molecules from ChEMBL document CHEMBL4814021, “Synthesis, biological evaluation, and correlation of cytotoxicity versus redox potential of 1,4-naphthoquinone derivatives” (Bioorg Med Chem Lett, 2021).

For one data set, the target named is T1, DNA topoisomerase 1 (Homo sapiens, UniProt P11387).
T1 sequence (P11387 whole entry): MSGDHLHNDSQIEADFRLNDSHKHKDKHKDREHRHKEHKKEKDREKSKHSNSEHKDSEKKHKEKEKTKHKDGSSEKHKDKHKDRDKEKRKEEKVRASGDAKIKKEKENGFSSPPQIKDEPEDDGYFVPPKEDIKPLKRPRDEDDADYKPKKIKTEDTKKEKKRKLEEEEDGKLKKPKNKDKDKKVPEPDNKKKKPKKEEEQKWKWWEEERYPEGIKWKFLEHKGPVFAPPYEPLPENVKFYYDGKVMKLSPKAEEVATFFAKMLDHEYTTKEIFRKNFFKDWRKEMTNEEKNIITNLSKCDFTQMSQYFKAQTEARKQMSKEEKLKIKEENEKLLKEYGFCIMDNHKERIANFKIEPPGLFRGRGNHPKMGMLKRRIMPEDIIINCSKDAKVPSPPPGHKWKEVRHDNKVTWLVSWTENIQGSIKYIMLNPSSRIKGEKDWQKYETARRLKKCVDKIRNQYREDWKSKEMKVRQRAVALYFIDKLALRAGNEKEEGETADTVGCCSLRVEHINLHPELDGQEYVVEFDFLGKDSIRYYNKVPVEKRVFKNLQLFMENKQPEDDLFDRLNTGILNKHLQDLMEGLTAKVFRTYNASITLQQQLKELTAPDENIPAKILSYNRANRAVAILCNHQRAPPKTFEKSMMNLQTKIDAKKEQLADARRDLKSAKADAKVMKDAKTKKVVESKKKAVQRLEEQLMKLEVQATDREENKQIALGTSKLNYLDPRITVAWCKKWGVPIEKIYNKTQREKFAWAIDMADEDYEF
The experiment in a line: Inhibition of DNA topoisomerase 1 (unknown origin).

Data set [1] in a line: Redox potential of compound in phosphate buffer at pH 7.2 by cyclic voltammetry. It counts as physicochemical.
Another data set has as its system KB. The experiment in a line: Cytotoxicity against human KB cells. It counts as functional, cell-based.
Another data set concerns HeLa. The data set can be described thus: Cytotoxicity against human HeLa cells. Type of data set: functional, cell-based.

With `COc1cccc2c1C(=O)C=CC2=O`, the values for the IC50 against DNA topoisomerase 1, in the data set on KB and with HeLa were 48 µM, 23.8 µM and 21.7 µM, respectively. The Activity in data set [1] was -0.165 V.

`CCOC1=CC(=O)c2ccccc2C1=O`: in data set [1], the Activity is -0.304 V. The results for the IC50 with KB and in the data set on HeLa were 16.9 µM and 23.8 µM, respectively.

`CC(=O)Oc1cccc2c1C(=O)C=CC2=O`: the Activity in data set [1] is -0.208 V. The half-maximal inhibitory concentration (IC50) – broadly, the concentration needed to halve the response being measured – with KB was 1.39 µM; in the data set with HeLa, 6.48 µM.

As for `O=C1C=CC(=O)c2c(OCc3ccccc3)cccc21`, the Activity in data set [1] was -0.16 V. Besides, the half-inhibitory concentration (IC50) is 8.48 µM in the data set on KB and 13.8 µM in the data set with HeLa.

Regarding `O=C1C=CC(=O)c2cc(O)ccc21`, in data set [1], the Activity was -0.192 V. In addition, the half-inhibitory concentration (IC50) in the data set on KB worked out at 13.3 µM; with HeLa, 7.06 µM.

For the molecule `CS(=O)(=O)OC1=CC(=O)c2ccccc2C1=O`, in data set [1], the Activity is -0.146 V. Moreover, the results for the IC50 in the data set with KB and in the data set on HeLa were 7.18 µM and 7.61 µM, respectively.

`O=C1C=CC(=O)c2cc(OCc3ccccc3)ccc21`: the results for the IC50 against DNA topoisomerase 1, in the data set on KB and in the data set with HeLa were 53.7 µM, 26.2 µM and 16.8 µM, respectively. In data set [1], the Activity is -0.207 V.

As to `COc1ccc2c(c1)C(=O)C=CC2=O`, the Activity in data set [1] was -0.196 V. The values for the IC50 with KB and in the data set on HeLa were 33.9 µM and 22.7 µM, respectively.

Regarding `C/C=C/C(=O)OC1=CC(=O)c2ccccc2C1=O`, the Activity in data set [1] is -0.413 V. Besides, the IC50 was found to be 64.2 µM with KB and 37.9 µM in the data set with HeLa.

For the molecule `O=C(OC1=CC(=O)c2ccccc2C1=O)c1ccccc1`, the Activity in data set [1] is -0.368 V. Besides, the results for the half-inhibitory concentration (IC50) in the data set with KB and with HeLa were 36.9 µM and 55 µM, respectively.

In the case of `O=C(Oc1ccc2c(c1)C(=O)C=CC2=O)c1cccs1`, the IC50 was > 100 µM on DNA topoisomerase 1, 18.3 µM with KB and 8.86 µM in the data set with HeLa. Further, the Activity in data set [1] was -0.166 V.

For the molecule `O=C1C=C(Oc2ccco2)C(=O)c2ccccc21`, the Activity in data set [1] was -0.395 V. For the same molecule, the values for the IC50 in the data set on KB and in the data set with HeLa were 53.4 µM and 37 µM, respectively.

As for `O=C(Oc1cccc2c1C(=O)C=CC2=O)c1ccco1`, the Activity in data set [1] was -0.213 V. Also, the IC50 in the data set with KB was 13.4 µM; with HeLa, 12.5 µM.

With `Cc1ccc(S(=O)(=O)Oc2ccc3c(c2)C(=O)C=CC3=O)cc1`, the values for the IC50 against DNA topoisomerase 1, with KB and in the data set on HeLa were > 100 µM, 16.4 µM and 15.1 µM, respectively. Besides, in data set [1], the Activity was -0.154 V.

With `Cc1ccc(S(=O)(=O)Oc2cccc3c2C(=O)C=CC3=O)cc1`, the Activity in data set [1] was -0.151 V. For the same molecule, the IC50 in the data set on KB is 10.7 µM; with HeLa it was 9.47 µM.

As for `CS(=O)(=O)Oc1cccc2c1C(=O)C=CC2=O`, the 50% inhibitory concentration (IC50) was > 100 µM on DNA topoisomerase 1, 27.1 µM in the data set with KB and 23.6 µM with HeLa. In data set [1], the Activity was -0.158 V.

For `O=C(Oc1cccc2c1C(=O)C=CC2=O)c1cccs1`, the IC50 was > 100 µM against DNA topoisomerase 1, 6.23 µM with KB and 5.21 µM with HeLa. In data set [1], the Activity was -0.212 V.

With `CCCOC1=CC(=O)c2ccccc2C1=O`, in data set [1], the Activity is -0.32 V. The values for the IC50 in the data set on KB and in the data set on HeLa were 49.4 µM and 51.6 µM, respectively.

Take `CCOc1ccc2c(c1)C(=O)C=CC2=O`: the Activity in data set [1] is -0.197 V. Further, the values for the IC50 with KB and in the data set on HeLa were 21.4 µM and 25.1 µM, respectively.

`O=C(OC1=CC(=O)c2ccccc2C1=O)c1cccs1`: in data set [1], the Activity was -0.413 V. Further, the IC50 in the data set on KB came out at 41.5 µM; in the data set on HeLa, 35.3 µM.

Regarding `CCCCOC1=CC(=O)c2ccccc2C1=O`, the Activity in data set [1] was -0.305 V. Further, the IC50 turned out to be 27 µM in the data set with KB and 35.3 µM in the data set with HeLa.

With `Cc1ccc(S(=O)(=O)OC2=CC(=O)c3ccccc3C2=O)cc1`, in data set [1], the Activity is -0.165 V. In addition, the figures for the 50% inhibitory concentration (IC50) in the data set with KB and in the data set on HeLa were 18.8 µM and 12.2 µM, respectively.

For `CC(=O)Oc1ccc2c(c1)C(=O)C=CC2=O`, the IC50 against DNA topoisomerase 1 is > 100 µM; in the data set with KB, 22.1 µM; in the data set on HeLa it was 27.7 µM. For the same molecule, in data set [1], the Activity was -0.18 V.

Consider `CC(=O)OC1=CC(=O)c2ccccc2C1=O`, for which, in data set [1], the Activity was -0.416 V. The IC50 in the data set with KB amounted to 38.8 µM; in the data set on HeLa it was 62.1 µM.

On to `O=C(Oc1ccc2c(c1)C(=O)C=CC2=O)c1ccccc1`, for which, in data set [1], the Activity is -0.174 V. Further, the values for the IC50 in the data set on KB and in the data set with HeLa were 12.1 µM and 19.2 µM, respectively.

For the molecule `O=C(Oc1ccc2c(c1)C(=O)C=CC2=O)c1ccco1`, the IC50 was > 100 µM at DNA topoisomerase 1, 15.8 µM with KB and 17.2 µM in the data set on HeLa. The Activity in data set [1] is -0.16 V.

For `C=CCOc1ccc2c(c1)C(=O)C=CC2=O`, the Activity in data set [1] is -0.194 V. The IC50 is 10.2 µM in the data set on KB and 27.2 µM in the data set with HeLa.

Regarding `O=C(Oc1cccc2c1C(=O)C=CC2=O)c1ccccc1`, the IC50 against DNA topoisomerase 1 was found to be 90.6 µM; in the data set on KB, 6.47 µM; in the data set on HeLa it was 13 µM. In data set [1], the Activity was -0.208 V.

Take `CS(=O)(=O)Oc1ccc2c(c1)C(=O)C=CC2=O`: in data set [1], the Activity was -0.15 V. The results for the IC50 in the data set with KB and in the data set with HeLa were 11.6 µM and 17.7 µM, respectively.

As to `COC1=CC(=O)c2ccccc2C1=O` [2-Methoxy-1,4-naphthoquinone], in data set [1], the Activity is -0.305 V. For the same molecule, the IC50 in the data set with KB is 17.3 µM; in the data set with HeLa, 29.8 µM.

As to `O=C1C=CC(=O)c2c(O)cccc21` [JUGLONE], the figures for the IC50 at DNA topoisomerase 1, with KB and in the data set with HeLa were 8.26 µM, 6.55 µM and 15.7 µM, respectively. For the same molecule, the Activity in data set [1] is -0.204 V.

With `O=C1C=C(O)C(=O)c2ccccc21` [LAWSONE], in data set [1], the Activity was -0.431 V. In addition, the IC50 amounted to 105 µM in the data set with KB and 71.3 µM with HeLa.

Take `CC1=CC(=O)c2c(O)cccc2C1=O` [PLUMBAGIN]: the Activity in data set [1] is -0.346 V. For the same molecule, the IC50 was 9.83 µM with KB and 10.2 µM in the data set on HeLa.
